Patent US9957251B2 (Takeda Pharmaceutical Company Limited, priority 2014, dated 2018)

Columns and labels:
CDK8/CycC = biological target: T1, CDK8/CycC (Homo sapiens, UniProt P49336); assay: CDK8 inhibitory activity (TR-FRET, Kinase Tracer-236 displacement); type: binding; details: 1 μM of the test compound; read-out: Percent inhibition of CDK8 activity (%)
T1 construct: purchased Carna Biosciences
Method in brief: (§1)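 Binding assay measuring displacement of Kinase Tracer-236 (60 nM in the added mix) by compound, using Eu-cryptate anti-GST antibody with CDK8/CycC (84 ng/mL) or CDC2L6/CycC (87 ng/mL) solutions. After 1 h at room temperature, TR-FRET read at 615 and 665 nm (excitation 320 nm).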

CDK19 (CDC2L6/CycC) = biological target: T2, CDK19 (CDC2L6/CycC) (Homo sapiens, UniProt Q9BWU1); assay: CDK19 inhibitory activity (TR-FRET, Kinase Tracer-236 displacement); type: binding; details: 1 μM of the test compound; read-out: Percent inhibition of CDK19 activity (%)
T2 construct: purchased Carna Biosciences
Method in brief: as §1

[1] = test system: human multiple myeloma RPMI8226 cells; assay: Inhibitory activity against human multiple myeloma RPMI8226 cell growth (CellTiter-Glo); type: cell-based; details: Homo sapiens, RPMI-8226, 192 h, 1 μM of the test compound, cultured for 8 days; read-out: Percent inhibition of RPMI8226 cell growth (%)
Method in brief: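 RPMI8226 cells (300/well) cultured 1 day at 37 °C, 5% CO2, then given compound at 1 μM for 8 days. ATP luminescence (CellTiter-Glo) read; percent inhibition relative to 0.1% DMSO wells.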

T2 sequence (Q9BWU1 whole entry): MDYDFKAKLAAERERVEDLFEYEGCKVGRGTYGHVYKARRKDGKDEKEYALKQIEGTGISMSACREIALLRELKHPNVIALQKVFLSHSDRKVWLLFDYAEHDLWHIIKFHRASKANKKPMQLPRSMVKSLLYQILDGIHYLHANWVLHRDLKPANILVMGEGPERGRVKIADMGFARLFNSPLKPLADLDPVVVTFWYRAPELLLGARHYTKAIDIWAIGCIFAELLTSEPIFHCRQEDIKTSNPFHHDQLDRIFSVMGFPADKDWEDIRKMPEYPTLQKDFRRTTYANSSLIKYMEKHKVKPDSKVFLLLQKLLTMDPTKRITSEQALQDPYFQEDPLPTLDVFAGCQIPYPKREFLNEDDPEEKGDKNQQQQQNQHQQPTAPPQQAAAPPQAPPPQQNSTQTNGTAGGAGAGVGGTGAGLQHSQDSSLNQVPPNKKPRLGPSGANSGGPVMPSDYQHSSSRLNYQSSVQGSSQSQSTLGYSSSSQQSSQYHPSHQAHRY
T2 sequence (P24863 whole entry partner): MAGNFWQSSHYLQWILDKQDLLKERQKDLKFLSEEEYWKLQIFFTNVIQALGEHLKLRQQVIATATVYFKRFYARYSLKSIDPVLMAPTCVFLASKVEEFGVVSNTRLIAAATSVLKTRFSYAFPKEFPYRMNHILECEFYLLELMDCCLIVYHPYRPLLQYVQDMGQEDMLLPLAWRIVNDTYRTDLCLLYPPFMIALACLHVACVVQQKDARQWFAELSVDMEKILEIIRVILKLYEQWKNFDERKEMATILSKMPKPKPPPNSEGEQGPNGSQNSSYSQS
T1 sequence (P49336 whole entry): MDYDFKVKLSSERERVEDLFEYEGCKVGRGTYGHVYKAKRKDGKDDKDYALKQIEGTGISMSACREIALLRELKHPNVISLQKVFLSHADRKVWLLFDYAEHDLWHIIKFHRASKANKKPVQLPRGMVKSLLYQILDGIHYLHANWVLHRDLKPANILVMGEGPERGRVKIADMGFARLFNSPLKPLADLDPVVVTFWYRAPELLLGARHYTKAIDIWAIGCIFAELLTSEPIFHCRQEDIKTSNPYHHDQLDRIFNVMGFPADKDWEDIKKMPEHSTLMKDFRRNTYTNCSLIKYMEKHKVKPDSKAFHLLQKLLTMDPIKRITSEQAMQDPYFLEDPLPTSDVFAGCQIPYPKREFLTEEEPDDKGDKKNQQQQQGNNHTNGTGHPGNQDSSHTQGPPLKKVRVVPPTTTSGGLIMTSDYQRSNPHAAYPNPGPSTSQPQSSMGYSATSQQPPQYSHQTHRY
T1 sequence (P24863 whole entry partner): as the sequence (P24863 whole entry partner) above

Row | Compound | inhibition at 1 µM (CDK8/CycC) [%] | inhibition at 1 µM (CDK19 (CDC2L6/CycC)) [%] | inhibition at 1 µM [1] [%]
1 | Cn1cc(-c2ccncc2/C=C/C(=O)Nc2ccc3c(c2)CCN(CC(F)(F)F)C3)cn1 [Example 277, (2E)-3-(4-(1-methyl-1H-pyrazol-4-yl)pyridin-3-yl)-N′-(2-(2,2,2-trifluoroethyl)-1,2,3,4-tetrahydroisoquinolin-6-yl)acrylamide] | 98 | 101 | 65
2 | Cn1cc(-c2ccncc2/C=C/C(=O)Nc2ccc3c(c2)CCN3)cn1 [Example 280, (2E)-N-(2,3-dihydro-1H-indol-5-yl)-3-(4-(1-methyl-1H-pyrazol-4-yl)pyridin-3-yl)acrylamide] | 97 | 96 | 58
3 | Cn1cc(-c2ccc(NC(=O)/C=C/c3cnccc3-c3cnn(C4CC4)c3)cc2)cn1 [Example 281, (2E)-3-(4-(1-cyclopropyl-1H-pyrazol-4-yl)pyridin-3-yl)-N-(4-(1-methyl-1H-pyrazol-4-yl)phenyl)acrylamide] | 92 | 97 | 58
4 | O=C(/C=C/c1cnccc1-c1ccc2ncn(CC3CC3)c2c1)Nc1ccc(CN2CCOCC2)cc1 [Example 283, (2E)-3-(4-(1-(Cyclopropylmethyl)-1H-benzimidazol-6-yl)pyridin-3-yl)-N-(4-(morpholin-4-ylmethyl)phenyl)acrylamide] | 95 | 96 | 60
5 | Cn1cc(-c2ccncc2/C=C/C(=O)Nc2ccc(CC#N)cc2)cn1 [Example 284, (2E)-N-(4-(cyanomethyl)phenyl)-3-(4-(1-methyl-1H-pyrazol-4-yl)pyridin-3-yl)acrylamide] | 92 | 95 | 57
6 | O=C(/C=C/c1cnccc1-c1cnn(CC2(F)CC2)c1)Nc1ccc(CN2CCOCC2)cc1 [Example 288, (2E)-3-(4-(1-((1-Fluorocyclopropyl)methyl)-1H-pyrazol-4-yl)pyridin-3-yl)-N-(4-(morpholin-4-ylmethyl)phenyl)acrylamide] | 99 | 101 | 57
7 | O=C(/C=C/c1cnccc1-c1cnn(C2CC2)c1)Nc1ccc(C2CC2)cc1 [Example 290] | 95 | 89 | 53
8 | O=C(/C=C/c1cnccc1-c1cnn(C2CC2)c1)Nc1ccc(COC(F)F)cc1 [Example 292, (2E)-3-(4-(1-Cyclopropyl-1H-pyrazol-4-yl)pyridin-3-yl)-N-(4-((difluoromethoxy)methyl)phenyl)acrylamide] | 97 | 93 | 52
9 | CC(C)(F)Cc1ccc(NC(=O)/C=C/c2cnccc2-c2cnn(C3CC3)c2)cc1 [Example 293, (2E)-3-(4-(1-cyclopropyl-1H-pyrazol-4-yl)pyridin-3-yl)-N-(4-(2-fluoro-2-methylpropyl)phenyl)acrylamide] | 102 | 95 | 61
10 | COCCn1cnc2ccc(-c3ccncc3/C=C/C(=O)Nc3ccc(CN4CCOCC4)cc3)cc21 [Example 295, (2E)-3-(4-(1-(2-methoxyethyl)-1H-benzimidazol-6-yl)pyridin-3-yl)-N-(4-(morpholin-4-ylmethyl)phenyl)acrylamide] | 103 | 97 | 62
11 | Cc1ccc(NC(=O)/C=C/c2cnccc2-c2cn[nH]c2)c(F)c1 [Example 296, (2E)-N-(2-fluoro-4-methylphenyl)-3-(4-(1H-pyrazol-4-yl)pyridin-3-yl)acrylamide] | 100 | 97 | 59
12 | Cn1cnc2ccc(-c3ccncc3/C=C/C(=O)Nc3ccc4c(ccn4CC(F)(F)F)c3)cc21 [Example 298, (2E)-3-(4-(1-methyl-1H-benzimidazol-6-yl)pyridin-3-yl)-N-(1-(2,2,2-trifluoroethyl)-1H-indol-5-yl)acrylamide] | 85 | 84 | 63
